Patent US20260234123A1, “Inhibitors of NLRP3” (Mwyngil Therapeutics, Inc., priority 2023, published 2026)

Tested on: IL1b release THP-1
Test: IL1b release THP-1 (ELISA)
Assay type: cell-based
Settings: Homo sapiens; average EC50; THP-1 cells primed with 1 μg/ml LPS 4 h, stimulated with 10 μM Nigericin 2 h; IL-1β in supernatant by ELISA; read-out: THP 1 IL 1b, EC50
Method in brief: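 THP-1 cells in serum-free medium were primed with 1 μg/ml LPS for 4 h, then stimulated with 10 μM nigericin for 2 h at 37° C., 5% CO2. IL-1β in supernatant measured by ELISA; EC50 values binned into A–E ranges.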

Structure (SMILES)	EC50 [nM]
Cc1cc(-c2ccc(C(F)(F)F)cc2Nc2ccccc2)nnc1N[C@@H]1CCCN(C(C)C)C1 [Compound 121, 6-[2-anilino-4-(trifluoromethyl)phenyl]-N-[(3R)-1-isopropyl-3-piperidyl]-4-methyl-pyridazin-3-amine]	500 to 1000
Cc1cc(N[C@@H]2CCCN(C(C)C)C2)nnc1-c1ccc(C(F)(F)F)cc1NC(F)(F)F [Compound 122, N-[(3R)-1-isopropyl-3-piperidyl]-5-methyl-6-[4-(trifluoromethyl)-2-(trifluoromethylamino)phenyl]-pyridazin-3-amine]	500 to 1000
Cc1cc(N[C@@H]2CCCN(C(C)C)C2)nnc1-c1ccc(C(F)(F)F)cc1NC(=O)C(F)(F)C(F)(F)F [Compound 123, (R)-2,2,3,3,3-Pentafluoro-N-(2-(6-((1-isopropylpiperidin-3-yl)amino)-4-methylpyridazin-3-yl)-5-(trifluoromethyl)phenyl) propanamide]	1000 to 5000
Cc1cc(-c2ccc(C(F)(F)F)cc2NC(=O)C(F)(F)C(F)(F)F)nnc1N[C@@H]1CCCN(C(C)C)C1 [Compound 125, 2,2,3,3,3-pentafluoro-N-[2-[6-[[(3R)-1-isopropyl-3-piperidyl]amino]-5-methyl-pyridazin-3-yl]-5-(trifluoromethyl)phenyl]propanamide]	1000 to 5000
CCN1CCC[C@@H](Nc2cc(C)c(-c3ccc(C(F)(F)F)cc3N)nn2)C1 [Compound 130, (R)-6-(2-Amino-4-(trifluoromethyl)phenyl)-N-(1-ethylpiperidin-3-yl)-5-methylpyridazin-3-amine]	< 500
CCN1CCC[C@@H](Nc2nnc(-c3ccc(C(F)(F)F)cc3N)cc2C)C1 [Compound 131, 6-[2-amino-4-(trifluoromethyl)phenyl]-N-[(3R)-1-ethyl-3-piperidyl]-4-methyl-pyridazin-3-amine]	< 500
Cc1cc(N[C@@H]2CCCN(C(C)C)C2)nnc1-c1ccc(C(F)(F)F)cc1NC(=O)C(C)C [Compound 132, (R)—N-(2-(6-((1-Isopropylpiperidin-3-yl)amino)-4-methylpyridazin-3-yl)-5-(trifluoromethyl)phenyl) isobutyramide]	< 500
CCN1CCC[C@@H](Nc2nnc(-c3ccc(C(F)(F)F)cc3NC(C)=O)cc2C)C1 [Compound 133, N-[2-[6-[[(3R)-1-ethyl-3-piperidyl]amino]-5-methyl-pyridazin-3-yl]-5-(trifluoromethyl)phenyl]acetamide]	500 to 1000
CCN1CCC[C@@H](Nc2cc(C)c(-c3ccc(C(F)(F)F)cc3NC(C)=O)nn2)C1 [Compound 134, (R)—N-(2-(6-((1-ethylpiperidin-3-yl)amino)-4-methylpyridazin-3-yl)-5-(trifluoromethyl)phenyl) acetamide]	500 to 1000
Cc1cc(-c2ccc(C(F)(F)F)cc2NC(=O)C(C)(C)C)nnc1N[C@@H]1CCCN(C(C)C)C1 [Compound 135, N-[2-[6-[[(3R)-1-isopropyl-3-piperidyl]amino]-5-methyl-pyridazin-3-yl]-5-(trifluoromethyl)phenyl]-2,2-dimethyl-propanamide]	500 to 1000
CC(=O)Nc1cc(C(F)(F)F)ccc1-c1nnc(N[C@@H]2CCCN(C(C)C)C2)cc1C [Compound 136, N-[2-[6-[[(3R)-1-isopropyl-3-piperidyl]amino]-4-methyl-pyridazin-3-yl]-5-(trifluoromethyl)phenyl]acetamide]	500 to 1000
CC(=O)Nc1cc(C(F)(F)F)ccc1-c1cc(C)c(N[C@@H]2CCCN(C(C)C)C2)nn1 [Compound 137, N-[2-[6-[[(3R)-1-isopropyl-3-piperidyl]amino]-5-methyl-pyridazin-3-yl]-5-(trifluoromethyl)phenyl]acetamide]	1000 to 5000
Cc1cc(N[C@@H]2CCCN(C(C)C)C2)nnc1-c1ccc(C(F)(F)F)cc1NC(=O)C(C)(C)C [Compound 138, N-[2-[6-[[(3R)-1-isopropyl-3-piperidyl]amino]-4-methyl-pyridazin-3-yl]-5-(trifluoromethyl)phenyl]-2,2-dimethyl-propanamide]	1000 to 5000
